# From patent publication US20040220084A1, “Methods for nucleic acid delivery” (priority 2003, published 2004)
# Experiments:
# JJ5 Breast Cancer cells [1] = assay: Growth inhibition assay against JJ5 breast cancer cells; assay type: cell-based, human; settings: 4 days culture
# Experimental: JJ5 breast cancer cells (prepared from BCBM JJ5) expressing approximately 10^6 epidermal growth factor receptors/cell were incubated with EGF-^111In-labeled transferrin composition, unlabeled hEGF or ^111In-oxine, centrifuged to remove free ligand, then assayed and seeded (10^6 cells/dish) into 35 mm culture dishes. Growth medium was added and the cells were cultured at 37° C./5% CO^2 for 4 days. The cells were then recovered by trypsinization and counted in a hemocytometer. Control dishes contained cells cultured in growth medium containing ^111In-DTPA or growth medium alone.
# JJ5 Breast Cancer cells [2] = assay: Cytotoxicity (colony-forming) assay against JJ5 breast cancer cells; assay type: cell-based, human; settings: 14 days
# Experimental: JJ5 breast cancer cells were incubated with increasing amounts EGF-^111In-labeled transferrin composition or ^111In-oxine, centrifuged to remove free ligand, assayed and then seeded into 50 mm culture dishes. The number of cells seeded was varied from 3×10^4 to 3×10^6 cells to obtain approximately 400 viable colonies/dish taking into account the plating efficiency and the expected level of cytotoxicity. Control dishes contained JJ5 breast cancer cells which were incubated with normal saline. Growth medium was added and the cells were cultured at 37° C./5% CO^2 for 14 days. The growth medium was removed and the colonies were stained with methylene blue (1% in a 1:1 mixture of ethanol and water) then washed twice. The number of colonies per dish was counted using a manual colony counter (Manostat Corp). The plating efficiency was calculated by dividing the number of colonies observed by the number of cells seeded in each dish. The surviving fraction at increasing amounts of EGF-^111In-labeled transferrin composition or ^111In-oxine was calculated by dividing the plating efficiency for dishes containing treated cells with that observed for control dishes with normal saline.
# JJ5 Breast Cancer cells [3] = assay: Binding of EGF-111In-labeled transferrin composition to JJ5 breast cancer cells (radioligand binding, kinetics, internalization); parameters: species or system human
# Experimental: For the normal breast cell line HBL-100, 8000 EGFR/cell has been reported. The expression of EGFR in breast cancer cell lines has a reported range of 800 EGFR/cell for MCF-7 cells to 10^6 EGFR/cell for MDA-MB-468 cells. […] Utilizing the Auger electron emitter ^111In was used in the initial experiments to illustrate the utility of the invention using EGF-111In-labeled transferrin compositions. The EGF-^111-In-labeled transferrin (0.25-80 ng) was incubated with 1.5×10^6 cells/dish JJ5 Breast Cancer (prepared from BCBM JJ5) cells in 1 mL of 0.1% human serum albumin in 35 mm multiwell culture dishes at 37° C. for 30 minutes. The cells were transferred to a centrifuge tube and centrifuged. The cell pellet was separated from the supernatant and counted in a g-scintillation counter to determine bound (B) and free (F) radioactivity. Non-specific binding was determined by conducting the assay in 100 nM hEGF. The kinetics of binding was determined by incubating 1 ng of EGF-^111In-labeled transferrin composition with 3×10^6 JJ5 Breast Cancer cells at 37° C. and determining the proportion of radioactivity bound to the cells at various times up to 24 hours. Internalized fraction was measured by determining the proportion of radioactivity which could not be displaced from the cell surface by 100 nM hEGF. Cell-associated binding (surface-binding and intracellular accumulation) was expressed as a percentage of medium radioactivity bound per mg of cell study protein.
Compound,growth inhibition of the JJ5 cells (JJ5 Breast Cancer cells [1]; 3.5 pCi/cell) [%],cell killing (JJ5 Breast Cancer cells [2]; <6 pCi/cell),growth inhibition of the JJ5 cells compared to the medium control (JJ5 Breast Cancer cells [1]; 3.4 pCi/cell) [%],internalization by cancer cells (in words) (JJ5 Breast Cancer cells [3]; JJ5 cells),"binding by the breast cancer cells (kinetics, in words) (JJ5 Breast Cancer cells [3]; JJ5 cells, 37° C.)","retained by the breast cancer cells (JJ5 Breast Cancer cells [3]; JJ5 cells, 37° C.)","affinity constant for binding to JJ5 cells (JJ5 Breast Cancer cells [3]; JJ5 cells, 37° C., 30 minutes) [L/mol]",111In radioactivity lost from the cells in vitro (JJ5 Breast Cancer cells [3]; over a 24 hour period at 37° C.) [%],reduction in cell survival for JJ5 cells (JJ5 Breast Cancer cells [2]; 8 pCi/cell) [%]
"[In+3].[O-]c1cccc2cccnc12.[O-]c1cccc2cccnc12.[O-]c1cccc2cccnc12 [^111In-oxine, reference compound]",91,greater than 99%,–,–,–,–,–,–,–
EGF-^111In-labeled transferrin composition: human EGF linked to human transferrin radiolabeled with Auger electron emitter 111In at the iron-binding sites,–,–,83,rapidly internalized,rapidly bound,at least 24 hours,8e+08,< 8,99
